Measured values reported in patent publication US7772197B2, “1,3,5-triazines for treatment of viral diseases” (1,3,5-Triazines for Treatment of Viral Diseases, priority 2002, dated 2010).
Like-named read-outs stand apart in the source and are kept apart here.

Key:
[1] = system: HIV-1 LAI-M184V; assay: Sensitivity of NRTI-resistant HIV strain M184V, MT-2 cells; type: cell-based; conditions: Human immunodeficiency virus 1, MT2
Experimental: (§1) 0.1 ml of a 3×10^5 cells/ml MT-2 cell suspension were seeded in 96-well plates at 3×10^4 cells/well. The compounds to be assayed were diluted in a separate 96-well at ten times (10×) the concentration needed for the screen. 22 μl of the 10× compounds was then added to the wells in triplicate except for six control wells, containing uninfected MT-2 cells alone (3 wells) and untreated HIV-infected MT-2 cells (3 wells). This was followed by the addition of HIV-1 at an MOI of 0.01, except for the three wells serving as the uninfected control. 0.1 ml of cRPMI was added to the uninfected well instead of virus. After the addition of virus, the 96-well plate was centrifuged at 1,200×g for two hours to enhance the adsorption of the virus by the MT-2 cells (see, e.g., O'Doherty, J. Virol. 74:10074-10080 (2000)). After the centrifugation step, the 96-well plate was then incubated in a 37° C. incubator containing 5% CO2 for three days. At the end of this time period the virus and cells were mixed by gentle pipetting followed by a 1 minute spin at 600×g to pellet the cells. The supernatant of each well was then serially diluted 1,000-fold into new 96-well plates to serve as inoculum for the next passage and assayed by ELISA for the amount of p24 produced. The next passage was performed as described above, except that the virus used to infect the cells was derived from the 1,000-fold dilution plate.
(§2) To determine if there is resistance of HIV NRTI resistant strains to mutagenic nucleoside analogues, NRTI resistant strains were grown in the presence of 5-aza-dC to determine whether the EC50 for 5-aza-dC is different from the WT strain (HIV-1 LAI). […] Growth of HIV NRTI resistant strains in the presence of the appropriate concentration of NRTI was used as a positive control.
(§3) Three HIV NRTI resistant strains (HIV-1 LAI-M184V, HIV-1 RTMDR1, with 74V, 41L, 106A and 215Y mutations, and HIV-1 RTMC, with 67N, 70R, 215F and 219Q mutations) were used to test the effectiveness of 5-aza-dC. […] Mutations include: M41L, E44D, A62V, K65R, D67N, T69DN, T69S_SS, K70R, L74V, V75I, F77L, Y115F, F116Y, V118I, Q151M, M184V, L210W, T215F and K219QE.
(§4) The effectiveness of DHAdC was tested against wild-type HIV strains and NRTI resistant HIV strains as described in Example 2. The following strains were tested: HIV-1 LAI, wild-type; HIV-I LAI-M184V-M184V mutation with resistance to lamivudine (3TC); HIV-1 RTMDR1-74V, 41L, 106A and 215Y mutations with resistance to zidovudine, didanosine, nevirapine and other non-nucleoside reverse transcriptase inhibitors; and HIV-1 RTMC-67N, 70R, 215F and 219Q with resistance to zidovudine.

[2] = system: HIV-1 RTMC, with 67N, 70R, 215F and 219Q mutations; assay: Sensitivity of NRTI-resistant HIV strain RTMC, MT-2 cells; type: cell-based; conditions: Human immunodeficiency virus 1, MT2
Experimental: as §1, §2, §3, §4

[3] = system: HIV-1 LAI; assay: Treatment of HIV-1-infected MT-2 cells with nucleoside analogues, p24 ELISA; type: cell-based; conditions: for EC50: Human immunodeficiency virus 1, MT2, wild-type HIV strain LAI, MT-2 cells
Experimental: The strains of HIV-1 used for primary drug screening are HIV-1 LAI or the appropriate strain of NRTI resistant HIV for studies of cross-resistance. Virus was propagated on MT-2 cells at an multiplicity of infection (MOI) of 0.01 to generate virus stocks. Briefly, the MT-2 cells were suspended in RPMI 1640 media supplemented with 10% fetal bovine serum, streptomycin and penicillin (cRPMI) and grown in a 37° C. incubator containing 5% CO2. Serial dilution of the virus and infection of MT-2 cells were followed by an ELISA detecting the capsid protein of HIV-1 (p24) and used to determine the titer of the virus stocks (50% tissue culture infectious dose (TCID50)). The ELISA was performed according to the manufacturer's instructions. The MT-2 cells are also used for visualizing the cytopathic effects of HIV-1 growth (e.g. syncytia formation).
as §1, with “plate. To generate an EC50 value, half-log concentrations of mutagenic nucleoside or nucleotide analogue capable of eradicating virus in a single passage are tested as above to generate a dose-response curve.” for “plate.”

[4] = system: HIV-1 RTMDR1, with 74V, 41L, 106A and 215Y mutations; assay: Sensitivity of NRTI-resistant HIV strain RTMDR1, MT-2 cells; type: cell-based; conditions: Human immunodeficiency virus 1, MT2
Experimental: as §1, §2
Three HIV NRTI resistant strains (HIV-1 LAI-M184V, HIV-1 RTMDR1, with 74V, 41L, 106A and 215Y mutations, and HIV-1 RTMC, with 67N, 70R, 215F and 219Q mutations) were used to test the effectiveness of 5-aza-dC. […]

[5] = system: HIV; assay: HIV infected SCID-Hu mice; type: in vivo; conditions: 30 mg/kg/day
Experimental: After completion of this toxicology experiment, SN1212 was tested in HIV infected SCID-Hu mice. […] The discordance between viral infectivity and conventional surrogate markers of viral load, such as p24 or HIV RNA, is not surprising, as it has also been observed in vitro, and reflects the increased proportion of non-infectious viral particles in the presence of SN1212. It is also interesting to note that, of the treated groups, the immunologic profile of the SN1212 groups most closely resemble that of the uninfected group. This is compatible with the finding that infection with less “fit” viruses provides a relative clinical benefit by preserving cellular immunity.

[6] = system: Measles virus (MV) Nagahata strain; assay: Treatment of measles virus-infected CV-1 cells; type: cell-based; conditions: Measles morbillivirus
Experimental: MV Nagahata strain was used for drug testing. Compared to some laboratory strains, this virus strain replicates lytically in primary human embryonic lung cells and causes extensive cytopathic effect during acute infection. The virus stock was prepared by growing the virus on CV-1 cells at a MOI of 0.01. The titer of the virus stock was determined by plaque formation assay after series dilution.
Virus susceptible cells (CV-1 or BT cells) were seeded in 96-well plates at 2×10^4 cells/well. The virus was inoculated onto the cell monolayers at a MOI of 0.001˜0.002 to keep 30 plaque forming units (pfu) in each well. The inoculum was maintained in 37° C. for about one hour and the supernatant was discarded. Fresh media containing appropriate drug concentration was added in each well. Untreated control was run in parallel. Each drug was tested in triplicate. Three days after infection, cytopathic effect (CPE) was examined in the untreated control wells. […] The plates went through one “freeze-thaw” cycle to release intracellular virus. The virus stock was saved for next round of passage. The virus titer was determined as described above. Virus at a titer of 10^5˜10^6 pfu/ml was produced by this method.

[7] = system: bovine viral diarrhea virus (BVDV) Singer strain; assay: Treatment of BVDV-infected BT cells; type: cell-based; conditions: Bovine viral diarrhea virus isolates and strains
Experimental: The BVDV strain used for drug testing was the Singer strain. This virus also causes a cytopathic effect that is measurable and allows estimation of the level of infection. The visible cytopathology can be used as an endpoint for titrating the virus by 50% tissue culture infectious dose (TCID50). The BVDV was propagated in bovine turbinate (BT cells). The virus TCID50 was determined by counting the cytopathic effect at the endpoint dilution. Briefly, confluent BT cells in 96-well plates were infected with the virus at 8 independent serial 10-fold dilutions. All the plates were incubated for five days at 37° C. in 5% CO2. Each well was scored as positive or negative appearance of visible cytopathic effect. The titers were calculated by the method of Reed and Muench, Am. J. Hyg. 27:493-497 (1938), and the mean titer and standard deviation for each of the 3 replicates for each drug concentration and the positive and negative control were calculated.
Virus susceptible cells (CV-1 or BT cells) were seeded in 96-well plates at 2×10^4 cells/well. The virus was inoculated onto the cell monolayers at a MOI of 0.001˜0.002 to keep 30 plaque forming units (pfu) in each well. The inoculum was maintained in 37° C. for about one hour and the supernatant was discarded. Fresh media containing appropriate drug concentration was added in each well. […] The virus titer was determined as described above. […]

[8] = Cytotoxicity on MT-2 cells (MTT); type: cell-based; conditions: human
Experimental: For each compound, cytotoxicity was evaluated on MT-2 cells. MT-2 cells were seeded at 3×10^4 cells/well in 96-well plates. […] After 5 days growth in a 37° C. incubator containing 5% CO2, MTT was added to a final concentration of 0.5 mg/ml and then incubated for four hours at 37° C. 10% SDS in 0.02 N HCl was added to lyse the cells overnight at 37° C. The plates were read on a Tecan Genius microplate reader at wavelengths of 570 nm/650 nm. The dose response curve was graphed by comparing the treated cells with the untreated control and the IC50 was determined for each compound.

[9] = cited from earlier work
[10] = system: HIV-1 RT proviral DNA; assay: Frequency of mutations to the viral genome induced by 5-aza-dC (sequencing of proviral clones); type: cell-based; conditions: 30 μM
Experimental: The viral genomic DNA from cells treated with the deoxyribonucleoside analog 5-aza-dC (30 μM) was purified using a Qiagen DNeasy® Kit. 1 μg of genomic DNA was used to amplify a 1 kb region of the HIV-1 RT proviral DNA by PCR. The PCR product was then cloned into a TOPO® cloning vector. A Millipore Miniprep Kit was used to purify plasmid containing proviral inserts. About 45 positive clones were sequenced in both directions by a Beckman Coulter CEQ 8000. The sequencing results were analyzed and assembled using the DNASTAR Stagman program. Each mutated base was counted and the mutation rate was calculated over the total number of sequenced nucleotides. Sixty-one mutations were found in 26,187 bases sequenced in the 5-aza-dC treated cells. Only one mutation in the drug-free control could be confirmed by sequencing in both directions and thus, the mutation rate in the control may be overestimated. Thus, sequencing of a fragment of the nucleic acid encoding HIV reverse transcriptase has confirmed that 5-aza-dC is mutagenic to the viral genome.

SMILES: Cc1cn([C@H]2C[C@H](N=[N+]=[N-])[C@@H](CO)O2)c(=O)[nH]c1=O [AZT, zidovudine]
- EC50 [1]: 10 nM
- EC50 [2]: 300 nM
- EC50 [3]: 10 nM
- EC50 [4]: 60 nM

SMILES: Nc1ccn([C@@H]2CS[C@H](CO)O2)c(=O)n1 [Compound 3TC, lamivudine, reference compound]
- CD4+ [5]: 6.9%
- CD4+ CD8+ [5]: 77%
- CD8+ [5]: 4.2%
- HIV-1 RNA ([5]; ** p < 0.05): 2.0** log copies/10^6 cells
- Viral liter ([5]; ** p < 0.05): 0** viruses/10^6 cells
- p24 ([5]; ** p < 0.05): 0** pg/10^6 cells
- EC50 [1]: > 32000 nM
- EC50 [2]: 330 nM
- EC50 [3]: 45 nM

SMILES: Nc1ncn([C@@H]2O[C@H](CO)[C@@H](O)[C@H]2O)c(=O)n1 [Compound 5-aza-C, 5-Azacytidine]
- EC50 [6]: 15000 nM
- EC50 [7]: 10000 nM

SMILES: Nc1ncn([C@H]2C[C@H](O)[C@@H](CO)O2)c(=O)n1 [Compound 5-aza-dC, 2′-deoxy-5-azacytidine]
- EC50 [1]: 10 nM
- IC50 at 5 days [8]: > 10000 nM
- EC50 [2]: 5 nM
- time to 10% degradation ([9]; pH 7.0, 25° C.): 5 h
- time to 10% degradation ([9]; pH 7.0, 50° C.): 0.5 h
- mutation rate % ([10]; 1 kb region of HIV-1 RT proviral DNA): 0.223%
- MUTATIONS/NUCLEOTIDE ([10]; 1 kb region of HIV-1 RT proviral DNA, 26,187 nucleotides sequenced): 61/
- AΠC CΠA mutations ([10]; number of mutations): 0
- AΠT TΠA mutations ([10]; number of mutations): 8
- CΠG GΠC mutations ([10]; number of mutations): 13
- GΠA AΠG mutations ([10]; number of mutations): 24
- GΠT TΠG mutations ([10]; number of mutations): 10
- TΠC CΠT mutations ([10]; number of mutations): 6
- EC50 [3]: 3 nM
- eradication of HIV ([3]; viral passage in MT-2 cells): capable of eradicating HIV in a single passage
- EC50 [4]: 10 nM

SMILES: CN1CN([C@H]2C[C@H](O)[C@@H](CO)O2)C(=O)N=C1N [MeDHAdC, 5-methyl-5,6-dihydro-5-azadeoxycytidine]
- EC50 [3]: 10000 nM
